Columns and labels:
Assay type in all cases: cell-based
[1] = system: Enterobacter cloacae; assay: MIC against Gram-negative bacteria: Enterobacter cloacae; details: 5×10^5 CFU/mL
How it was run: (§1)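 Purified recombinant human EGF domain proteins are tested by broth dilution in LB against a 5×10^5 CFU/mL inoculum, with two-fold serial dilutions run in triplicate. Plates are incubated at 37° C with shaking, and the MIC is read as the lowest protein concentration without growth.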

[2] = system: Proteus vulgaris; assay: MIC against Gram-negative bacteria: Proteus vulgaris; details: 5×10^5 CFU/mL
How it was run: as §1

[3] = system: Moraxella catarrhalis; assay: MIC against Gram-negative bacteria: Moraxella catarrhalis; details: 5×10^5 CFU/mL
How it was run: as §1

[4] = system: Aeromonas hydrophila; assay: MIC against Gram-negative bacteria: Aeromonas hydrophila; details: 5×10^5 CFU/mL
How it was run: as §1

[5] = system: Klebsiella pneumonia; assay: MIC against Gram-negative bacteria: Klebsiella pneumonia; details: 5×10^5 CFU/mL
How it was run: as §1

[6] = system: E. coli BL21; assay: MIC against Gram-negative bacteria: E. coli BL21; details: 5×10^5 CFU/mL
How it was run: as §1

[7] = system: E. coli DH5α; assay: Antibacterial activity: MIC and growth curve against E. coli DH5α in 96-well plate; details: minimal inhibitory concentration against E. coli DH5α; 96-well plate, 5×10^5 CFU/mL, 37° C., judged after 8 h
How it was run: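 Log-phase bacteria (OD600 ~0.5) resuspended in LB at 5×10^5 CFU/mL, exposed to recombinant protein at 50, 25, 12.5 μg/mL final in triplicate, 37 °C shaking at 175 rpm. OD600 read every 30 min; MIC is lowest concentration showing no growth.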

[8] = system: Serratia marcescens; assay: MIC against Gram-negative bacteria: Serratia marcescens; details: 5×10^5 CFU/mL
How it was run: as §1

[9] = system: Proteus mirabilis; assay: MIC against Gram-negative bacteria: Proteus mirabilis; details: 5×10^5 CFU/mL
How it was run: as §1

[10] = system: Pseudomonas aeruginosa; assay: MIC against Gram-negative bacteria: Pseudomonas aeruginosa; details: 5×10^5 CFU/mL
How it was run: as §1

[11] = system: Citrobacter diversus; assay: MIC against Gram-negative bacteria: Citrobacter diversus; details: 5×10^5 CFU/mL
How it was run: as §1

[12] = Enterobacter cloacae, 96-well plate, 37° C., 10 h
[13] = Proteus vulgaris, 96-well plate, 37° C., 10 h
[14] = Moraxella catarrhalis, 96-well plate, 37° C., 10 h
[15] = Aeromonas hydrophila, 96-well plate, 37° C., 10 h
[16] = Klebsiella pneumonia, 96-well plate, 37° C., 10 h
[17] = E. coli BL21, 96-well plate, 37° C., 10 h
[18] = Serratia marcescens, 96-well plate, 37° C., 10 h
[19] = Proteus mirabilis, 96-well plate, 37° C., 10 h
[20] = Pseudomonas aeruginosa, 96-well plate, 37° C., 10 h
[21] = Citrobacter diversus, 96-well plate, 37° C., 10 h
[22] = E. cloacae, 10 h cultivation at 37° C.
[23] = P. vulgaris, 10 h cultivation at 37° C.
[24] = M. catarrhalis, 10 h cultivation at 37° C.
[25] = A. hydrophila, 10 h cultivation at 37° C.
[26] = K. pneumonia, 10 h cultivation at 37° C.
[27] = E. coli BL21, 10 h cultivation at 37° C.
[28] = S. marcescens, 10 h cultivation at 37° C.
[29] = P. mirabilis, 10 h cultivation at 37° C.
[30] = P. aeruginosa, 10 h cultivation at 37° C.
[31] = C. diversus, 10 h cultivation at 37° C.
[32] = 10 h cultivation at 37° C., two-fold serial dilution
[33] = Enterobacter cloacae, 10 h cultivation at 37° C.
[34] = Proteus vulgaris, 10 h cultivation at 37° C.
[35] = Moraxella catarrhalis, 10 h cultivation at 37° C.
[36] = Aeromonas hydrophila, 10 h cultivation at 37° C.
[37] = Klebsiella pneumonia, 10 h cultivation at 37° C.
[38] = Serratia marcescens, 10 h cultivation at 37° C.
[39] = Proteus mirabilis, 10 h cultivation at 37° C.
[40] = Pseudomonas aeruginosa, 10 h cultivation at 37° C.
[41] = Citrobacter diversus, 10 h cultivation at 37° C.

PRT1309 (EVDPCAHGHGGCSPHANCTKVAPGQRTCTCQDGYMGDGELCQ; listed as Homo sapiens)
25 µg/mL: MIC against S. marcescens [8, 18] | MIC against P. mirabilis [9, 19] | MIC against C. diversus [11, 21]
50 µg/mL: MIC against P. vulgaris [2, 13] | MIC against A. hydrophila [4, 15] | MIC against K. pneumonia [5, 16] | MIC against E. coli BL21 [6, 17]
12.5 µg/mL: MIC against E. cloacae [1, 12] | MIC against M. catarrhalis [3, 14] | MIC [7] | MIC against P. aeruginosa [10, 20]

PRT659 (DADECVIFGPGLCPNGRCLNTVPGYVCLCNPGFHYDASHKKCE; listed as Homo sapiens)
50 µg/mL: MIC A. hydrophila ([4]; 96-well plate, 37° C., 10 h) | MIC E. coli BL21 ([6]; 96-well plate, 37° C., 10 h) | MIC S. marcescens ([8]; 96-well plate, 37° C., 10 h)
12.5 µg/mL: MIC K. pneumonia ([5]; 96-well plate, 37° C., 10 h) | MIC P. mirabilis ([9]; 96-well plate, 37° C., 10 h)
25 µg/mL: MIC E. cloacae ([1]; 96-well plate, 37° C., 10 h) | MIC P. vulgaris ([2]; 96-well plate, 37° C., 10 h) | MIC M. catarrhalis ([3]; 96-well plate, 37° C., 10 h) | MIC [7] | MIC P. aeruginosa ([10]; 96-well plate, 37° C., 10 h) | MIC C. diversus ([11]; 96-well plate, 37° C., 10 h)

PRT854 (TCSMANCQYGCDVVKGQIRCQCPSPGLQLAPDGRTCV; listed as Homo sapiens)
12.5 µg/mL: MIC (μg/mL) E. cloacae [1, 22] | MIC (μg/mL) A. hydrophila [4, 25] | MIC (μg/mL) K. pneumonia [5, 26] | MIC (μg/mL) E. coli BL21 [6, 27] | MIC [7] | MIC (μg/mL) S. marcescens [8, 28] | MIC (μg/mL) P. mirabilis [9, 29] | MIC (μg/mL) C. diversus [11, 31]
50 µg/mL: MIC (μg/mL) P. vulgaris [2, 23] | MIC (μg/mL) M. catarrhalis [3, 24]
100 µg/mL: MIC (μg/mL) P. aeruginosa [10, 30]

PRT1296 (GCEPCHKKVCAHGTCQPSSQAGFTCECQEGWMGPLCD; listed as Homo sapiens)
50 µg/mL: MIC against P. vulgaris [2, 13] | MIC against K. pneumonia [5, 16] | MIC [7] | MIC against C. diversus [11, 21]
25 µg/mL: MIC against E. cloacae [1, 12] | MIC against S. marcescens [8, 18] | MIC against P. mirabilis [9, 19] | MIC against P. aeruginosa [10, 20]
12.5 µg/mL: MIC against M. catarrhalis [3, 14] | MIC against E. coli BL21 [6, 17]
100 µg/mL: MIC against A. hydrophila [4, 15]

PRT191 (PCLRKYKDFCIHGECKYVKELRAPSCICHPGYHGERCH; listed as Homo sapiens)
25 µg/mL: MIC (μg/mL) E. cloacae [1, 22] | MIC (μg/mL) C. diversus [11, 31]
12.5 µg/mL: MIC (μg/mL) M. catarrhalis [3, 24] | MIC (μg/mL) A. hydrophila [4, 25] | MIC (μg/mL) K. pneumonia [5, 26] | MIC (μg/mL) E. coli BL21 [6, 27] | MIC [7] | MIC (μg/mL) S. marcescens [8, 28] | MIC (μg/mL) P. mirabilis [9, 29] | MIC (μg/mL) P. aeruginosa [10, 30]
50 µg/mL: MIC (μg/mL) P. vulgaris [2, 23]

PRT1162 (DIDDCILNACEHNSTCKDLHLSYQCVCLSDWEGNFCE; listed as Homo sapiens)
50 µg/mL: MIC P. vulgaris [2, 32] | MIC A. hydrophila [4, 32] | MIC K. pneumonia [5, 32] | MIC E. coli BL21 [6, 32]
12.5 µg/mL: MIC E. cloacae [1, 32] | MIC M. catarrhalis [3, 32] | MIC [7] | MIC P. aeruginosa [10, 32]
25 µg/mL: MIC S. marcescens [8, 32] | MIC P. mirabilis [9, 32] | MIC C. diversus [11, 32]

PRT1345 (NINECSSSPCLNKGICVDGVAGYRCTCVKGFVGLHCE; listed as Homo sapiens)
12.5 µg/mL: MIC against E. cloacae [1, 33] | MIC [7] | MIC against P. mirabilis [9, 39]
50 µg/mL: MIC against S. marcescens [8, 38] | MIC against P. aeruginosa [10, 40] | MIC against C. diversus [11, 41]
25 µg/mL: MIC against P. vulgaris [2, 34] | MIC against M. catarrhalis [3, 35] | MIC against A. hydrophila [4, 36] | MIC against K. pneumonia [5, 37] | MIC against E. coli BL21 [6, 27]

PRT3 (DGDQCESNPCLNGGSCKDDINSYECWCPFGFEGKNCE; listed as Homo sapiens)
25 µg/mL: MIC (μg/mL) P. vulgaris [2, 13] | MIC (μg/mL) A. hydrophila [4, 15] | MIC (μg/mL) E. coli BL21 [6, 17] | MIC (μg/mL) P. aeruginosa [10, 20] | MIC (μg/mL) C. diversus [11, 21]
12.5 µg/mL: MIC (μg/mL) E. cloacae [1, 12] | MIC (μg/mL) M. catarrhalis [3, 14] | MIC (μg/mL) K. pneumonia [5, 16] | MIC [7] | MIC (μg/mL) S. marcescens [8, 18] | MIC (μg/mL) P. mirabilis [9, 19]

PRT1483 (DIDECVTSSCEGHCVNTEGGFVCECGPGMQLSADRHSCQ; listed as Homo sapiens)
25 µg/mL: MIC against P. vulgaris [2, 34] | MIC against M. catarrhalis [3, 35] | MIC against A. hydrophila [4, 36] | MIC against K. pneumonia [5, 37] | MIC against E. coli BL21 [6, 27] | MIC against S. marcescens [8, 38]
12.5 µg/mL: MIC against E. cloacae [1, 33] | MIC [7] | MIC against P. mirabilis [9, 39]
50 µg/mL: MIC against P. aeruginosa [10, 40] | MIC against C. diversus [11, 41]

PRT467 (ECPGGCRNGGFCNERRICECPDGFHGPHCE; listed as Homo sapiens)
50 µg/mL: MIC against S. marcescens ([8]; 96-well plate, 37° C., 10 h) | MIC against C. diversus ([11]; 96-well plate, 37° C., 10 h)
12.5 µg/mL: MIC against E. cloacae ([1]; 96-well plate, 37° C., 10 h) | MIC against E. coli BL21 ([6]; 96-well plate, 37° C., 10 h) | MIC [7] | MIC against P. mirabilis ([9]; 96-well plate, 37° C., 10 h) | MIC against P. aeruginosa ([10]; 96-well plate, 37° C., 10 h)
25 µg/mL: MIC against P. vulgaris ([2]; 96-well plate, 37° C., 10 h) | MIC against M. catarrhalis ([3]; 96-well plate, 37° C., 10 h) | MIC against A. hydrophila ([4]; 96-well plate, 37° C., 10 h) | MIC against K. pneumonia ([5]; 96-well plate, 37° C., 10 h)

PRT1402 (DGCPDLCNGNGRCTLGQNSWQCVCQTGWRGPGCN; listed as Homo sapiens)
25 µg/mL: MIC against P. vulgaris [2, 34] | MIC against M. catarrhalis [3, 35] | MIC against A. hydrophila [4, 36] | MIC [7] | MIC against P. aeruginosa [10, 40]
50 µg/mL: MIC against E. cloacae [1, 33] | MIC against P. mirabilis [9, 39]
12.5 µg/mL: MIC against K. pneumonia [5, 37] | MIC against E. coli BL21 [6, 27] | MIC against S. marcescens [8, 38] | MIC against C. diversus [11, 41]

PRT1433 (PPRRCDSNPCFRGVQCTDSRDGFQCGPCPEGYTGNGITCI; listed as Homo sapiens)
12.5 µg/mL: MIC against E. cloacae [1, 33] | MIC against P. vulgaris [2, 34] | MIC against M. catarrhalis [3, 35] | MIC against K. pneumonia [5, 37] | MIC against E. coli BL21 [6, 27] | MIC [7] | MIC against S. marcescens [8, 38] | MIC against P. aeruginosa [10, 40] | MIC against C. diversus [11, 41]
25 µg/mL: MIC against A. hydrophila [4, 36] | MIC against P. mirabilis [9, 39]

PRT1135 (NLDDCASRPCQRGARCRDRVHDFDCLCPSGYGGKTCE; listed as Homo sapiens)
12.5 µg/mL: MIC S. marcescens [8, 32] | MIC C. diversus [11, 32]
25 µg/mL: MIC E. cloacae [1, 32] | MIC P. vulgaris [2, 32] | MIC M. catarrhalis [3, 32] | MIC A. hydrophila [4, 32] | MIC [7]
50 µg/mL: MIC K. pneumonia [5, 32] | MIC E. coli BL21 [6, 32] | MIC P. mirabilis [9, 32]
100 µg/mL: MIC P. aeruginosa [10, 32]

From patent publication US9833497B2, “Human originated EGF domain proteins and use of the same” (CHENGDU SOURCEBIO LIMITED-LIABILITY COMPANY, priority 2013, dated 2017)
